Reference: EP0683169A1, “8-Amino-pyrido 1,2,3-de 1,3,4 benzoxadiazine derivatives, and antibacterial agents containing them” (BAYER AG, priority 1994, dated 1995)
Converted amounts (≈) assume the structure as drawn.

Columns and labels:
Experiment in all cases: MIC (MHK) by agar serial dilution on Iso-Sensitest agar
Format in all cases: cell-based
Acinetobacter 14068 = settings: strain 14068, ca. 10⁴ colony-forming particles per spot, 37°C, ca. 20 h, read-out: MHK-Werte
From the text: (§1) Die minimalen Hemmkonzentrationen (MHK) der erfindungsgemäßen Verbindungen wurden per Reihenverdünnungsverfahren auf Iso-Sensitest Agar (Oxoid) bestimmt. Für jede Prüfsubstanz wurde eine Reihe von Agarplatten hergestellt, die bei jeweils doppelter Verdünnung abfallende Konzentrationen des Wirkstoffs enthielten. Die Agarplatten wurden mit einem Multipoint-Inokulator (Denley) beimpft. Zum Beimpfen wurden Übernachtkulturen der Erreger verwandt, die zuvor so verdünnt wurden, daß jeder Impfpunkt ca. 10⁴ koloniebildende Partikel enthielt. Die beimpften Agarplatten wurden bei 37°C bebrütet, und das Keimwachstum wurde nach ca. 20 Stunden abgelesen. Der MHK-Wert (µg/ml) gibt die niedrigste Wirkstoffkonzentration an, bei der mit bloßem Auge kein Wachstum zu erkennen war.
(§2) In der nachstehenden Tabelle sind die MHK-Werte einiger der erfindungsgemäßen Verbindungen aufgeführt. Tabelle

E. coli ATCC 25922 = settings: Escherichia coli, ATCC25922, strain ATCC 25922, ca. 10⁴ colony-forming particles per spot, 37°C, ca. 20 h, read-out: MHK-Werte
From the text: as §1, §2

E. coli Neumann = settings: Escherichia coli, strain Neumann, ca. 10⁴ colony-forming particles per spot, 37°C, ca. 20 h, read-out: MHK-Werte
From the text: as §1, §2

[1] = test system: Klebsiella pneumoniae 8085; settings: strain 8085, ca. 10⁴ colony-forming particles per spot, 37°C, ca. 20 h, read-out: MHK-Werte
From the text: as §1, §2

Micrococcus luteus 9341 = settings: strain 9341, ca. 10⁴ colony-forming particles per spot, 37°C, ca. 20 h, read-out: MHK-Werte
From the text: as §1, §2

SMILES	MIC (Acinetobacter 14068) [µg/mL]	MIC (E. coli ATCC 25922) [µg/mL]	MIC (E. coli Neumann) [µg/mL]	MIC [1] [µg/mL]	MIC (Micrococcus luteus 9341) [µg/mL]
CN1CCN(c2c(F)c(N)c3c(=O)c(C(=O)O)cn4c3c2OCN4C)CC1 [Beispiel 2, 8-Amino-9-fluor-3-methyl-10-(4-methyl-1-piperazinyl)-7-oxo-2,3-dihydro-7H-pyrido[1,2,3-d,e][1,3,4]benzoxadiazin-6-carbonsäure]	0.015 (≈ 0.0397 µM)	0.015 (≈ 0.0397 µM)	0.015 (≈ 0.0397 µM)	0.06 (≈ 0.159 µM)	0.015 (≈ 0.0397 µM)
CC1CN(c2c(F)c(N)c3c(=O)c(C(=O)O)cn4c3c2OCN4C)CCN1 (centres unmarked) [Beispiel 3, 8-Amino-9-fluor-3-methyl-10-(3-methyl-1-piperazinyl)-7-oxo-2,3-dihydro-7H-pyrido[1,2,3-d,e][1,3,4]benzoxadiazin-6-carbonsäure]	0.015 (≈ 0.0397 µM)	0.06 (≈ 0.159 µM)	0.06 (≈ 0.159 µM)	0.12 (≈ 0.318 µM)	0.015 (≈ 0.0397 µM)
CN1COc2c(N3CCC(O)C3)c(F)c(N)c3c(=O)c(C(=O)O)cn1c23 (centres unmarked) [Beispiel 5, 8-Amino-9-fluor-3-methyl-10-(3-hydroxy-1-pyrrolidinyl)-7-oxo-2,3-dihydro-7H-pyrido[1,2,3-d,e][1,3,4]benzoxadiazin-6-carbonsäure]	0.015 (≈ 0.0412 µM)	0.03 (≈ 0.0823 µM)	0.015 (≈ 0.0412 µM)	0.25 (≈ 0.686 µM)	0.015 (≈ 0.0412 µM)
CN1C[C@@H]2C[C@H]1CN2c1c(F)c(N)c2c(=O)c(C(=O)O)cn3c2c1OCN3C [Beispiel 10]	0.015 (≈ 0.0385 µM)	0.06 (≈ 0.154 µM)	0.06 (≈ 0.154 µM)	0.12 (≈ 0.308 µM)	0.015 (≈ 0.0385 µM)
